The text below walks through data of paper PMC3671673, “In Vitro Morphological Assessment of Apoptosis Induced by Antiproliferative Constituents from the Rhizomes of Curcuma zedoaria” (Evidence-based Complementary and Alternative Medicine : eCAM, 2013).

Data set [1] relates to nasopharyngeal carcinoma cell line (KB). In words: Neutral red cytotoxicity assay, KB. The format is cell-based, human. As to conditions: extracts, 72 h, mean ± SD of three replicates. As to the method:
(§1) The human cancer cells KB, Ca Ski, MCF-7, HCT-116, A549, and noncancer human cell lines (MRC-5) were purchased from the American Tissue Culture Collection (ATCC, USA). The supplemented RPMI 1640 media and eagle minimum essential medium (EMEM) were purchased from Sigma-Aldrich, USA. The supplements or antibiotics such as foetal bovine serum (FBS), penicillin/streptomycin (P/S) (100 μg/mL), amphotericin B (50 μg/mL), and accutase were purchased from PAA Laboratories, Austria. Sodium pyruvate (11 mg/mL) purchased from Sigma-Aldrich, USA. […] Microtiter plate incubator shaker (LT Biomax 500) was used and absorbance was measured at 540 nm using an ELISA microplate reader (EMax microplate reader of Molecular Devices, USA). […]
(§2) The in vitro cytotoxicity activity was performed using the neutral red cytotoxicity assay based on the initial protocol as described earlier with some modifications. […] The density of the viable cells was counted by 0.4% of trypan blue exclusion in a haemocytometer. […] The optical density (OD) of the eluted dye was read at 540 nm using a microplate reader. […] Cytotoxicity of each test agent is expressed as IC50 value. […]

The subject of data set [2] is cervical carcinoma cell line (Ca Ski). Nature of the data set: cells. Format: cell-based. As to conditions: Homo sapiens, 72 h, neutral red, mean ± SD of three replicates, read-out: IC50 (μg/mL) Ca Ski. As to the method:
(§3) The human cancer cells KB, Ca Ski, MCF-7, HCT-116, A549, and noncancer human cell lines (MRC-5) were purchased from the American Tissue Culture Collection (ATCC, USA). The supplemented RPMI 1640 media and eagle minimum essential medium (EMEM) were purchased from Sigma-Aldrich, USA. The supplements or antibiotics such as foetal bovine serum (FBS), penicillin/streptomycin (P/S) (100 μg/mL), amphotericin B (50 μg/mL), and accutase were purchased from PAA Laboratories, Austria. Sodium pyruvate (11 mg/mL) purchased from Sigma-Aldrich, USA. The cells were cultured in a SHEL LAB water-jacketed CO2 incubator with […] tissue culture flasks (Nunc, Denmark), which was observed routinely under inverted microscope (Leica DMI3000 B, Germany) for any contamination and seeded into 96-well flat bottom microtiter plate (Nunc, Denmark). The extract or pure compounds was dissolved in dimethyl sulfoxide (DMSO, Molecular Biology Grade, >99.9%) from Sigma-Aldrich, USA. Microtiter plate incubator shaker (LT Biomax 500) was used and absorbance was measured at 540 nm using an ELISA microplate reader (EMax microplate reader of Molecular Devices, USA). MCF-7 and Ca Ski were cultured in RPMI 1640 media supplemented with 10% v/v FBS, P/S, and amphotericin B and MRC-5 in EMEM media with 10% v/v FBS, P/S, amphotericin B, and sodium pyruvate. The cells were cultured in tissue culture flask in 5% CO2 incubator kept at 37°C in a humidified atmosphere and observed routinely under inverted microscope from any contaminations. Each fresh medium was replaced every 2 or 3 days until cell confluence was achieved and the cells were detached by using accutase.
(§4) The in vitro cytotoxicity activity was performed using the neutral red cytotoxicity assay based on the initial protocol as described earlier with some modifications. Briefly, cells were detached from the tissue culture flask with 1.0 mL solution of accutase and PBS solution. The cell pellet was obtained by centrifugation at 1,000 rpm for 5 minutes. The density of the viable cells was counted by 0.4% of trypan blue exclusion in a haemocytometer. Cells were then plated in 96-well microtiter plate (Nunc), at a concentration of 1 × 10^4 cells/well and incubated in a CO2 incubator at 37°C to allow the cells to adhere. After 24 h, the cells were treated with six different concentrations, that is, 1, 10, 25, 50, 75, and 100 μg/mL of each tested agent in three replicates. The plates were incubated for 72 h at 37°C in a 5% CO2 incubator. The untreated cells were regarded as a negative control, whilst cells incubated only with DMSO (0.5%, v/v) were used as a vehicle control. No effect due to the DMSO was observed. Doxorubicin was used as the positive control. After 72 h, the old medium was substituted with fresh medium containing 50 μg/mL neutral red. The 96-well plates were placed into incubator for 3 h. This is to allow the uptake of the vital dye into the lysosomes of viable and undamaged cells. Then, the media was discarded and cells were washed with 200 μL of neutral red washing solution. The dye was eluted from the cells by adding neutral red resorb solution (200 μL). The plate was further incubated for 30 min with rapid agitation on a microtiter plate shaker. The optical density (OD) of the eluted dye was read at 540 nm using a microplate reader. The experiments were conducted in triplicates. The percentage of inhibition of each of the test samples was calculated according to the following formula using the OD values obtained: percentage of inhibition (%) = (OD control − OD sample)/OD control × 100%. The average of three replicates was then obtained. Cytotoxicity of each test agent is expressed as IC50 value. The IC50 value is the concentration of test agents that cause 50% inhibition or cell death, averaged from the three experiments. The IC50 for each extract was extrapolated from the graphs of the percentage inhibition versus concentration of test agents.

Data set [3] concerns hormone-dependent breast cancer cell line (MCF-7). In words: cells. Format: cell-based. The settings on record: Homo sapiens, MCF7, 72 h, neutral red, mean ± SD of three replicates, read-out: IC50 (μg/mL) MCF-7. As to the method: as §3, §4
Data set [4] deals with colon carcinoma cell line (HCT-116). In words: Neutral red cytotoxicity assay, HCT-116. Format: cell-based. As to conditions: Homo sapiens, 72 h, mean ± SD of three replicates, read-out: IC50 (μg/mL) HCT-116. How it is done: as §3
as §4, with “The percentage of inhibition of each of the test samples was calculated according to the following formula using the OD values obtained: percentage of inhibition (%) = (OD control − OD sample)/OD control × 100%. The average of three replicates was then obtained.” left out, “The IC50 value is the concentration of test agents that cause 50% inhibition or cell death, averaged from the three experiments. The IC50 for each extract was extrapolated from the graphs of the percentage inhibition versus concentration of test agents.” left out

Data set [5] has as its system lung carcinoma cell line (A549). Nature of the data set: Neutral red cytotoxicity assay, A549. As to conditions: Homo sapiens, extracts, 72 h, mean ± SD of three replicates, read-out: IC50 (μg/mL) A549. The format is cell-based. How it is done:
as §1, §2

Data set [6] has as its system noncancer human lung fibroblast cell line (MRC-5). In words: Neutral red cytotoxicity assay, MRC-5. Format: cell-based. The settings on record: 72 h, mean ± SD of three replicates, read-out: IC50 (μg/mL) MRC-5. As to the method: as §3
as §4, with “The percentage of inhibition of each of the test samples was calculated according to the following formula using the OD values obtained: percentage of inhibition (%) = (OD control − OD sample)/OD control × 100%. The average of three replicates was then obtained.” left out, “The IC50 value is the concentration of test agents that cause 50% inhibition or cell death, averaged from the three experiments. The IC50 for each extract was extrapolated from the graphs of the percentage inhibition versus concentration of test agents.” left out

In data set [7] the test system is cervical carcinoma cell line (Ca Ski). The arrangement: method as in PMID 19471192. The settings on record: reported previously, ref [21]; cited from earlier work.
The test system of data set [8] is hormone-dependent breast cancer cell line (MCF-7). The arrangement: method as in PMID 19471192. The settings on record: MCF-7, reported previously, ref [21]; cited from earlier work.
Data set [9] concerns colon carcinoma cell line (HCT-116). The arrangement: method as in PMID 19471192. As to conditions: HCT-116, reported previously, ref [21]; cited from earlier work.

In brackets after ≈: the same amount, converted by molar mass. Like-named read-outs stand apart in the source and are kept apart here.

`COc1cccc2c1C(=O)c1c(O)c3c(c(O)c1C2=O)C[C@@](O)(C(=O)CO)C[C@@H]3O[C@H]1C[C@H](N)[C@H](O)[C@H](C)O1` [Doxorubicin, reference compound]: the “IC50 (μg/mL) KB” value in data set [1] came out at 0.27 ± 0.01 µg/mL (≈ 0.497 µM). Also, the IC50 was found to be 0.18 ± 0.06 µg/mL (≈ 0.331 µM) in data set [2] (extracts); 0.05 ± 0.01 µg/mL (≈ 0.092 µM) in data set [3] (extracts); 0.24 ± 0.04 µg/mL (≈ 0.442 µM) in data set [4] (extracts); 0.58 ± 0.01 µg/mL (≈ 1.07 µM) in [5]; 0.4 ± 0.03 µg/mL (≈ 0.736 µM) in data set [6] (MRC5, extracts).
Take `C/C1=C\CC[C@H](C)C(=O)C[C@H](C(C)C)C(=O)C1` [Neocurdione (2), neocurdione]: the IC50 in data set [2] (isolated compounds) was 46.2 ± 1.1 µg/mL (≈ 195 µM); in data set [3] (isolated compounds) it was 53.5 ± 1.1 µg/mL (≈ 226 µM); in data set [4] (isolated compounds), 64 ± 1.3 µg/mL (≈ 271 µM); in data set [6] (MRC5, isolated compounds), 59 ± 0.4 µg/mL (≈ 250 µM).
The matching figures for `C/C1=C\CC[C@@]2(C)O[C@@H]2C(=O)c2c(C)coc2C1` [Zederone (5), zederone]: above 100 µg/mL, above 100 µg/mL, above 100 µg/mL and above 100 µg/mL.
For the compound `CC[C@H](CC[C@@H](C)[C@H]1CC[C@H]2[C@@H]3CC=C4C[C@@H](O)CC[C@]4(C)[C@H]3CC[C@]12C)C(C)C` [β-sitosterol (8), β-sitosterol], the “cytotoxicity (in words)” value in [7], in data set [8] and in [9] was “low cytotoxicity” each time.
